In patent publication US20060079566A1, “PDK-1/Akt signaling inhibitors” (priority 2003, published 2006):

Experiments:
CCRF-CEM = assay: NCI DTP screen (SRB), Leukemia; type: cell-based; conditions: Homo sapiens
Description: (§5) After 24 h, two plates of each cell line are fixed in situ with TCA, to represent a measurement of the cell population for each cell line at the time of drug addition (Tz). Experimental drugs are solubilized in dimethyl sulfoxide at 400-fold the desired final maximum test concentration and stored frozen prior to use. […]
(§6) Following drug addition, the plates are incubated for an additional 48 h at 37° C., 5% CO2, 95% air, and 100% relative humidity. […] Bound stain is subsequently solubilized with 10 mM trizma base, and the absorbance is read on an automated plate reader at a wavelength of 515 nm. […] Using the seven absorbance measurements [time zero, (Tz), control growth, (C), and test growth in the presence of drug at the five concentration levels (Ti)], the percentage growth is calculated at each of the drug concentrations levels. Percentage growth inhibition is calculated as: [(Ti−Tz)/(C−Tz)]×100 for concentrations for which Ti>/=Tz [(Ti−Tz)/Tz]×100 for concentrations for which Ti<Tz […]

OVCAR-8 = assay: NCI DTP screen (SRB), Ovarian Cancer; type: cell-based; conditions: Homo sapiens
Description: (§1) Screening of compounds 70 and 71 against several cancer cell lines The human tumor cell lines of the cancer screening panel are grown in RPMI 1640 medium containing 5% fetal bovine serum and 2 mM L-glutamine. For a typical screening experiment, cells are inoculated into 96 well microtiter plates in 100 μL at plating densities ranging from 5,000 to 40,000 cells/well depending on the doubling time of individual cell lines. After cell inoculation, the microtiter plates are incubated at 37° C., 5% CO2, 95% air and 100% relative humidity for 24 h prior to addition of experimental drugs.
(§2) After 24 h, two plates of each cell line are fixed in situ with TCA, to represent a measurement of the cell population for each cell line at the time of drug addition (Tz). Experimental drugs are solubilized in dimethyl sulfoxide at 400-fold the desired final maximum test concentration and stored frozen prior to use. At the time of drug addition, an aliquot of frozen concentrate is thawed and diluted to twice the desired final maximum test concentration with complete medium containing 50 μg/ml gentamicin. Additional four, 10-fold or ½ log serial dilutions are made to provide a total of five drug concentrations plus control. Aliquots of 100 μl of these different drug dilutions are added to the appropriate microtiter wells already containing 100 μl of medium, resulting in the required final drug concentrations.
(§3) Following drug addition, the plates are incubated for an additional 48 h at 37° C., 5% CO2, 95% air, and 100% relative humidity. For adherent cells, the assay is terminated by the addition of cold TCA. Cells are fixed in situ by the gentle addition of 50 μl of cold 50% (w/v) TCA (final concentration, 10% TCA) and incubated for 60 minutes at 4° C. The supernatant is discarded, and the plates are washed five times with tap water and air dried. Sulforhodamine B (SRB) solution (100 μl) at 0.4% (w/v) in 1% acetic acid is added to each well, and plates are incubated for 10 minutes at room temperature. After staining, unbound dye is removed by washing five times with 1% acetic acid and the plates are air dried. Bound stain is subsequently solubilized with 10 mM trizma base, and the absorbance is read on an automated plate reader at a wavelength of 515 nm. For suspension cells, the methodology is the same except that the assay is terminated by fixing settled cells at the bottom of the wells by gently adding 50 μl of 80% TCA (final concentration, 16% TCA). Using the seven absorbance measurements [time zero, (Tz), control growth, (C), and test growth in the presence of drug at the five concentration levels (Ti)], the percentage growth is calculated at each of the drug concentrations levels. Percentage growth inhibition is calculated as: [(Ti−Tz)/(C−Tz)]×100 for concentrations for which Ti>/=Tz [(Ti−Tz)/Tz]×100 for concentrations for which Ti<Tz
(§4) Three dose response parameters are calculated for each experimental agent. […] The drug concentration resulting in total growth inhibition (TGI) is calculated from Ti=Tz. […] Values are calculated for each of these three parameters if the level of activity is reached; however, if the effect is not reached or is exceeded, the value for that parameter is expressed as greater or less than the maximum or minimum concentration tested.

IGROV1 = assay: NCI DTP screen (SRB), Ovarian Cancer; type: cell-based; conditions: Homo sapiens
Description: as §1, §2, §3, §4

SK-OV-3 = assay: NCI DTP screen (SRB), Ovarian Cancer; type: cell-based; conditions: Homo sapiens
Description: as §1, §2, §3, §4

OVCAR-5 = assay: NCI DTP screen (SRB), Ovarian Cancer; type: cell-based; conditions: Homo sapiens
Description: as §1, §2, §3, §4

OVCAR-4 = assay: NCI DTP screen (SRB), Ovarian Cancer; type: cell-based; conditions: Homo sapiens
Description: as §1, §2, §3, §4

OVCAR-3 = assay: NCI DTP screen (SRB), Ovarian Cancer; type: cell-based
Description: as §1, §2, §3, §4

[1] = tested on: sixty human tumor cell lines; assay: NCI DTP sixty cell line assay, means over the panel; type: cell-based
Description: as §1, §2, §3, §4

MCP7 = assay: NCI DTP screen (SRB), Breast Cancer; type: cell-based, human; conditions: MCP7
Description: as §1, §2, §3, §4

immunoprecipitated Akt = assay: Direct inhibition of immunoprecipitated Akt kinase activity; type: biochemical, human
TK-10 = assay: NCI DTP screen (SRB), Renal Cancer; type: cell-based; conditions: Homo sapiens
Description: as §1, §2, §3, §4

A498 = assay: NCI DTP screen (SRB), Renal Cancer; type: cell-based; conditions: Homo sapiens
Description: as §1, §2, §3, §4

CAKI-1 = assay: NCI DTP screen (SRB), Renal Cancer; type: cell-based; conditions: Homo sapiens
Description: as §1, §2, §3, §4

ACHN = assay: NCI DTP screen (SRB), Renal Cancer; type: cell-based; conditions: Homo sapiens
Description: as §1, §2, §3, §4

786-0 = assay: NCI DTP screen (SRB), Renal Cancer; type: cell-based; conditions: Homo sapiens
Description: as §1, §2, §3, §4

SN12C = assay: NCI DTP screen (SRB), Renal Cancer; type: cell-based; conditions: Homo sapiens
Description: as §1, §2, §3, §4

NCI-H522 = assay: NCI DTP screen (SRB), Non-Small Cell Lung Cancer; type: cell-based, human
Description: as §1, with “drugs. […]” for “drugs.”
Following drug addition, the plates are incubated for an additional 48 h at 37° C., 5% CO2, 95% air, and 100% relative humidity. […] Bound stain is subsequently solubilized with 10 mM trizma base, and the absorbance is read on an automated plate reader at a wavelength of 515 nm. […] Using the seven absorbance measurements [time zero, (Tz), control growth, (C), and test growth in the presence of drug at the five concentration levels (Ti)], the percentage growth is calculated at each of the drug concentrations levels. Percentage growth inhibition is calculated as: [(Ti−Tz)/(C−Tz)]×100 for concentrations for which Ti>/=Tz [(Ti−Tz)/Tz]×100 for concentrations for which Ti<Tz
Three dose response parameters are calculated for each experimental agent. […]

HT29 = assay: NCI DTP screen (SRB), Colon Cancer; type: cell-based; conditions: Homo sapiens, HT-29
Description: as §5, §6

NCI/ADR-RES = assay: NCI DTP screen (SRB), Breast Cancer; type: cell-based; conditions: Homo sapiens
Description: as §1, §2, §3, §4

HS 57BT = assay: NCI DTP screen (SRB), Breast Cancer; type: cell-based
Description: as §1, §2, §3, §4

T-47D = assay: NCI DTP screen (SRB), Breast Cancer; type: cell-based
Description: as §1, §2, §3, §4

MDA-MB-231/ATCC = assay: NCI DTP screen (SRB), Breast Cancer; type: cell-based
Description: as §1, §2, §3, §4

MDA-MB-435 = assay: NCI DTP screen (SRB), Breast Cancer; type: cell-based; conditions: Homo sapiens
Description: as §1, §2, §3, §4

NCC(=O)Nc1ccc(-n2nc(C(F)(F)F)cc2-c2ccc3c(ccc4ccccc43)c2)cc1 [Compound 70, 2-Amino-N-{4-[5-(2-phenanthrenyl)-3-(trifluoromethyl)-1H-pyrazol-1-yl]-phenyl}-acetamide]
GI50 (CCRF-CEM): 387 nM | CC50 (CCRF-CEM; read-out: LC50): > 100000 nM | GI50 (OVCAR-8; OVCAR-8): 1020 nM | CC50 (OVCAR-8; OVCAR-8, read-out: LC50): > 100000 nM | CC50 (IGROV1; IGROV-1, read-out: LC50): > 100000 nM | GI50 (IGROV1; IGROV-1, IGROV1): 1560 nM | GI50 (SK-OV-3): 1370 nM | GI50 (OVCAR-5; OVCAR-5): 1710 nM | CC50 (OVCAR-5; OVCAR-5, read-out: LC50): 6450 nM | GI50 (OVCAR-4; OVCAR-4): 1780 nM | CC50 (OVCAR-4; OVCAR-4, read-out: LC50): 6550 nM | GI50 (OVCAR-3; Homo sapiens): 1510 nM | Mean Optical Densities (OVCAR-3; Log10 Concentration −8.0): 1.879 | range in which cell growth is completely suppressed in a diverse range of tumor cell lines [1]: 3 to 5 µM | CC50 ([1]; Homo sapiens, 48 h, read-out: mean LC50 among the sixty cell lines): 24000 nM | GI50 ([1]; Homo sapiens, 48 h, two-day treatment, serum-containing medium, read-out: mean GI50 among the sixty cell lines): 1100 nM | concentration at which many cell lines respond to the growth inhibitory effect ([1]; two-day exposure, 5% FBS-containing medium): ≥ 0.1 µM | GI50 (MCP7; Homo sapiens): 718 nM | Percent Growth (MCP7; Log10 Concentration −5.0): −57% | Percent Growth (MCP7; Log10 Concentration −6.0): 43% | direct inhibitory effect on immunoprecipitated Akt kinase activity (immunoprecipitated Akt): no appreciable direct inhibition | GI50 (TK-10; TK-10): 1480 nM | CC50 (TK-10; TK-10, read-out: LC50): 6470 nM | GI50 (A498; A498): 2300 nM | CC50 (A498; A498, read-out: LC50): 66900 nM | GI50 (CAKI-1): 703 nM | GI50 (ACHN): 1420 nM | GI50 (786-0; 786-0): 1200 nM | CC50 (786-0; 786-0, read-out: LC50): 6790 nM | GI50 (SN12C): 1580 nM | GI50 (NCI-H522; Homo sapiens): 1950 nM | Mean Optical Densities (NCI-H522; Log10 Concentration −4.0): 0.486 | GI50 (HT29): 858 nM | GI50 (NCI/ADR-RES): 954 nM | CC50 (NCI/ADR-RES; read-out: LC50): 8280 nM | Percent Growth (HS 57BT; HS 57BT, Log10 Concentration −5.0): −34% | Percent Growth (HS 57BT; HS 57BT, Log10 Concentration −6.0): 88% | CC50 (HS 57BT; Homo sapiens, read-out: LC50): > 100000 nM | GI50 (HS 57BT; Homo sapiens, HS 57BT): 2050 nM | GI50 (T-47D; Homo sapiens, T47D): 1820 nM | Percent Growth (T-47D; Log10 Concentration −4.0): −64% | CC50 (MDA-MB-231/ATCC; Homo sapiens, MDA-MB-231, read-out: LC50): 6670 nM | GI50 (MDA-MB-231/ATCC; Homo sapiens, MDA-MB-231/ATCC): 1150 nM | Mean Optical Densities (MDA-MB-231/ATCC; MDA-MB-231/ATCC, Log10 Concentration −8.0): 1.988 | GI50 (MDA-MB-435): 1350 nM
